Measurements taken from the supplement of paper PMC4977894.
Structures can show the parent of a compound that is named as a salt. ± gives the standard deviation of the averaged measurements.

Assays:
[1] = tested on: Homo sapiens (human subject panel, olfactory perception); assay: perceived odor familiarity rating (rating 0-100); higher = more familiar
Method in brief: (§1)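 Stimuli were molecules diluted in paraffin oil at high and low concentrations, with 1 mL of each sniffed in randomized order across ten visits of 100 stimuli. Participants were 55 healthy humans aged 18–50, excluding the six lowest performers. Subjects who smelled a stimulus moved a computerized slider away from its starting point of 50, and positions were rescaled to 0–100. Familiarity, intensity and pleasantness are each reported as an average over subjects.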

[2] = tested on: Homo sapiens (human subject panel, olfactory perception); assay: perceived odor intensity rating (rating 0-100); higher = stronger perceived smell
Method in brief: as §1

[3] = tested on: Homo sapiens (human subject panel, olfactory perception); assay: perceived odor pleasantness rating (rating 0-100); higher = more pleasant
Method in brief: as §1

[4] = odor dilution in paraffin oil: 1/10
[5] = odor dilution in paraffin oil: 1/1,000
[6] = odor dilution in paraffin oil: 1/100,000
[7] = odor dilution in paraffin oil: 1/10,000,000

Compound | perceived odor familiarity rating [1, 4] | perceived odor familiarity rating [1, 5] | perceived odor intensity rating [2, 4] | perceived odor intensity rating [2, 5] | perceived odor pleasantness rating [3, 4] | perceived odor pleasantness rating [3, 5] | perceived odor familiarity rating [1, 6] | perceived odor intensity rating [2, 6] | perceived odor pleasantness rating [3, 6] | perceived odor familiarity rating [1, 7] | perceived odor intensity rating [2, 7] | perceived odor pleasantness rating [3, 7]
CCCCCCCCCC(OC)OC [Decanal dimethyl acetal] | 47.6 ± 34 | 41.2 ± 34 | 70.7 ± 25 | 29.7 ± 30 | 50.2 ± 29 | 53.6 ± 22 |  |  |  |  |  | 
CCSSCC [Diethyl disulfide] |  | 52.5 ± 35 |  | 85.9 ± 16 |  | 21.3 ± 27 | 51.2 ± 32 | 60.6 ± 34 | 28.4 ± 24 |  |  | 
CCOC(=O)CC(O)C(=O)OCC (stereo unspecified) [Diethyl malate] |  | 35.8 ± 28 |  | 24.6 ± 25 |  | 41.4 ± 24 | 22.1 ± 26 | 12.6 ± 17 | 55.2 ± 19 |  |  | 
CCOC(=O)CC(=O)OCC [Diethyl malonate] |  | 64.3 ± 24 |  | 57.1 ± 27 |  | 71.7 ± 17 | 42.8 ± 28 | 27.4 ± 26 | 61 ± 23 |  |  | 
CCOC(=O)CCCCCCCCC(=O)OCC [Diethyl sebacate] | 64.7 ± 28 | 31.3 ± 31 | 54.7 ± 27 | 21.4 ± 25 | 71.3 ± 21 | 55.5 ± 26 |  |  |  |  |  | 
CCSCC [Diethyl sulfide] |  |  |  |  |  |  | 37.5 ± 27 | 62.5 ± 32 | 24.2 ± 22 | 42 ± 27 | 19.7 ± 27 | 43.8 ± 23
O=C1CCc2ccccc2O1 [Dihydrocoumarin] |  | 59.7 ± 29 |  | 70.9 ± 19 |  | 64.8 ± 23 | 42.2 ± 30 | 35.5 ± 30 | 64.6 ± 22 |  |  | 
CCCCCC1=C(C)CCC1=O [Dihydrojasmone] |  | 48.1 ± 28 |  | 62.7 ± 28 |  | 44.5 ± 26 | 42.9 ± 29 | 44.3 ± 28 | 48.5 ± 24 |  |  | 
CNc1ccccc1C(=O)OC [Dimethyl anthranilate] |  | 53 ± 28 |  | 44.2 ± 31 |  | 63.1 ± 23 | 31.2 ± 29 | 17.1 ± 21 | 53.3 ± 26 |  |  | 
CSSSC [Dimethyl trisulfide (replicate)] |  |  |  |  |  |  | 59.2 ± 32 | 80.1 ± 22 | 18.4 ± 22 | 50.5 ± 33 | 62.9 ± 29 | 26.5 ± 23
CSSSC [Dimethyl trisulfide] |  |  |  |  |  |  | 52.5 ± 34 | 77.6 ± 23 | 22.3 ± 24 | 49.1 ± 34 | 63 ± 28 | 28.1 ± 25
c1ccc(Oc2ccccc2)cc1 [Diphenyl ether] |  | 40.4 ± 28 |  | 55.1 ± 29 |  | 49.9 ± 26 | 42.4 ± 29 | 27 ± 28 | 46.5 ± 22 |  |  | 
CCOC(=O)c1ccco1 [Ethyl 2-furoate] | 47.9 ± 33 | 36.6 ± 29 | 87.4 ± 14 | 40.3 ± 34 | 32 ± 28 | 42.8 ± 24 |  |  |  |  |  | 
CCOC(=O)C(C)CC (stereo unspecified) [Ethyl 2-methylbutyrate] |  | 69.6 ± 30 |  | 76.5 ± 18 |  | 75.1 ± 24 | 67.3 ± 25 | 55.4 ± 28 | 77.9 ± 20 |  |  | 
CCCC(C)C(=O)OCC (stereo unspecified) [Ethyl 2-methylpentanoate (replicate)] |  | 59.6 ± 31 |  | 52.1 ± 29 |  | 72.2 ± 18 | 52 ± 27 | 50.5 ± 29 | 64.9 ± 20 |  |  | 
CCCC(C)C(=O)OCC (stereo unspecified) [Ethyl 2-methylpentanoate] |  | 67.2 ± 24 |  | 67.9 ± 22 |  | 76.8 ± 20 | 50.8 ± 28 | 49.4 ± 24 | 64.9 ± 21 |  |  | 
CCOC(=O)CCSCc1ccco1 [Ethyl 3-(furfurylthio)propionate] |  |  |  |  |  |  | 50.2 ± 32 | 77.8 ± 18 | 19.6 ± 22 | 41.6 ± 32 | 58.7 ± 28 | 32.3 ± 24
CCOC(=O)C1OC1(C)c1ccccc1 (stereo unspecified) [Ethyl 3-methyl-3-phenylglycidate] |  |  |  |  |  |  | 48 ± 30 | 48.2 ± 32 | 59.9 ± 25 | 28.4 ± 28 | 13.3 ± 28 | 53.4 ± 23

Compound | perceived odor familiarity rating [1, 4] | perceived odor familiarity rating [1, 5] | perceived odor intensity rating [2, 4] | perceived odor intensity rating [2, 5] | perceived odor pleasantness rating [3, 4] | perceived odor pleasantness rating [3, 5] | perceived odor familiarity rating [1, 6] | perceived odor intensity rating [2, 6] | perceived odor pleasantness rating [3, 6] | perceived odor familiarity rating [1, 7] | perceived odor intensity rating [2, 7] | perceived odor pleasantness rating [3, 7]
CCCCC(=O)OCC [Ethyl Valerate] |  | 67.1 ± 33 |  | 75.2 ± 22 |  | 71.4 ± 26 | 58.9 ± 30 | 50.6 ± 28 | 73.6 ± 20 |  |  | 
CCOc1cc(C=O)ccc1O [Ethyl Vanillin] | 79.8 ± 22 | 77.3 ± 26 | 75.3 ± 20 | 71 ± 26 | 84.3 ± 20 | 83.9 ± 17 |  |  |  |  |  | 
CCOC(=O)c1ccccc1 [Ethyl benzoate] |  | 50.5 ± 32 |  | 66.2 ± 24 |  | 57.1 ± 25 | 43.1 ± 30 | 38.4 ± 33 | 58.6 ± 24 |  |  | 
CCCCCCCCCC(=O)OCC [Ethyl decanoate] | 50.9 ± 30 | 38.9 ± 27 | 59.8 ± 30 | 21.2 ± 24 | 58.2 ± 26 | 49.6 ± 24 |  |  |  |  |  | 
CCOC=O [Ethyl formate] | 43.9 ± 32 | 24.9 ± 20 | 51.6 ± 35 | 16.5 ± 26 | 36 ± 26 | 48.2 ± 22 |  |  |  |  |  | 
CCCCCCC(=O)OCC [Ethyl heptanoate] |  | 59.4 ± 27 |  | 69.1 ± 23 |  | 62.6 ± 26 | 44.3 ± 29 | 34.8 ± 28 | 55.9 ± 25 |  |  | 
CCCCCCCCCCCCCC(=O)OCC [Ethyl myristate] | 40.5 ± 27 | 38.1 ± 33 | 39.1 ± 28 | 20.7 ± 24 | 50.6 ± 26 | 42.8 ± 25 |  |  |  |  |  | 
CCCCCCCC(=O)OCC [Ethyl octanoate] |  | 52.7 ± 33 |  | 54.7 ± 29 |  | 66.2 ± 22 | 52 ± 29 | 46.7 ± 31 | 61.9 ± 22 |  |  | 
C/C=C/C=C/C(=O)OCC [Ethyl sorbate] |  | 53.1 ± 29 |  | 75.4 ± 17 |  | 35.3 ± 26 | 41.5 ± 30 | 26.1 ± 27 | 54.8 ± 20 |  |  | 
CCCCCCCCCCCCCCCCCC(=O)OCC [Ethyl stearate] | 38.3 ± 34 | 33.1 ± 24 | 46.8 ± 33 | 17 ± 17 | 45.7 ± 25 | 43.4 ± 15 |  |  |  |  |  | 
CCCCCCCCCCC(=O)OCC [Ethyl undecanoate] | 49.9 ± 34 | 46.8 ± 28 | 69.9 ± 21 | 38.8 ± 28 | 52.8 ± 26 | 50.1 ± 28 |  |  |  |  |  | 
C=CCc1ccc(OC(C)=O)c(OC)c1 [Eugenyl Acetate] |  | 61.4 ± 28 |  | 52.3 ± 30 |  | 63.9 ± 23 | 37.7 ± 30 | 21.1 ± 28 | 58 ± 25 |  |  | 
O=C(O)/C=C/C(=O)O [Fumaric acid] | 51.9 ± 32 | 44 ± 31 | 58.8 ± 26 | 17.1 ± 23 | 36.9 ± 24 | 49.5 ± 25 |  |  |  |  |  | 
OCc1ccco1 [Furfuryl alcohol] |  | 50.3 ± 27 |  | 56.7 ± 29 |  | 39.6 ± 23 | 33.6 ± 28 | 22.8 ± 22 | 44.6 ± 24 |  |  | 
NCC(=O)O [Glycine] | 47.3 ± 28 | 40.8 ± 27 | 50 ± 28 | 17.9 ± 23 | 59.4 ± 23 | 53.3 ± 25 |  |  |  |  |  | 
COc1ccccc1O [Guaiacol (replicate)] |  |  |  |  |  |  | 47.2 ± 30 | 67.4 ± 29 | 37.6 ± 25 | 44 ± 30 | 54.8 ± 28 | 36.9 ± 19
COc1ccccc1O [Guaiacol] |  |  |  |  |  |  | 47.3 ± 31 | 61.8 ± 28 | 41.6 ± 26 | 39.4 ± 28 | 48.6 ± 32 | 40.9 ± 25
COc1ccccc1OC(=O)Cc1ccccc1 [Guaiacyl phenylacetate] | 58.5 ± 28 | 45.1 ± 32 | 71.5 ± 22 | 60.8 ± 28 | 42.2 ± 29 | 37.2 ± 28 |  |  |  |  |  | 
